# Legend:
# Format in all cases: cell-based
# [1] = system: H1975 cells; assay: relative cell viability, TMS with/without compound c, H1975
# [2] = system: H1975 (EGFR double mutation) gefitinib-resistant NSCLC cells; assay: cell viability assay, H1975
# Excerpt: (§1) Table 1 summarizes the IC50 values of five different cell lines treated with TMS.
# [3] = system: H358 (EGFR wild-type) NSCLC cells; assay: cell viability assay, H358; details: Homo sapiens, NCI-H358
# Excerpt: as §1
# [4] = system: EGFR PY1173; assay: immunoblot analysis of EGFR PY1173, A549 cell lysate; details: A549 cells
# Procedure: (§2) Moreover, the inhibition of PY1173 activation happens as early as in 1 hour after TMS treatment.
# [5] = system: BEAS-2B (normal epithelial cells); assay: cell viability assay, BEAS-2B; details: Homo sapiens
# Excerpt: as §1
# [6] = system: H820 (EGFR double mutation) gefitinib-resistant NSCLC cells; assay: cell viability assay, H820; details: NCI-H820
# Excerpt: as §1
# [7] = system: EGFR PY1173; assay: immunoblot analysis of EGFR PY1173, H1975 cell lysate
# Procedure: as §2
# [8] = system: A549 (EGFR wild-type) NSCLC cells; assay: cell viability assay, A549; details: Homo sapiens
# Excerpt: as §1
# [9] = system: H1975 cells; assay: cell morphology, flow cytometry and relative cell viability, TMS with/without JNK inhibitor, H1975; details: TMS alone, groups: control, FIG. 6
# [10] = system: H1975 cells; assay: cell morphology and flow cytometry (apoptosis), H1975; details: gefitinib-resistant NSCLC cell lines (H1975), FIG. 2
# [11] = system: mammalian target of rapamycin (mTOR); assay: proteomic analysis of apoptosis markers; details: proteomics, gefitinib-resistant NSCLC cells, FIG. 3
# Excerpt: FIG. 3 is a schematic diagram showing the proteomic analysis result of TMS on different markers involved in apoptosis of gefitinib-resistant non-small-cell lung cancer cells.
structure (smiles),measurement,setting,value
"c1cc(-c2cnn3cc(-c4ccc(OCCN5CCCCC5)cc4)cnc23)ccn1 [compound c, reference compound]",effect of compound c on the effect of TMS,"[1]; H1975, FIG. 4",counteracts the effect of TMS
"COc1ccc(/C=C\c2cc(OC)c(OC)c(OC)c2)cc1 [TMS, (Z)3,4,5,4′-tetramethoxystilbene]",selectivity for gefitinib-resistant NSCLC cells over normal and EGFR wild-type cells,"[2]; H1975 and H820 versus BEAS-2B, A549, H358",selectivity on gefitinib-resistant NSCLC cells
same,IC50,"[2]; Homo sapiens, NCI-H1975, H1975 (EGFR double mutation), cell viability",57.2 ± 13.5 nM
same,IC50,[3],> 400 nM
same,inhibitory effect on EGFR (PY1173),[4],not detected
same,suppression of EGFR PY1173,[4]; 10-time higher concentration of TMS,no suppression of EGFR PY1173 was observed
same,IC50,[5],> 400 nM
same,IC50,[6],136 ± 35.9 nM
same,time to inhibition of PY1173 activation after TMS treatment,"[7]; H1975, fixed concentration of TMS",≤ 1 h
same,activation of EGFR PY1173,"[7]; TMS at 40, 60 and 80 nM, gefitinib-resistant NSCLC cells (H1975)",inhibits the activation of EGFR PY1173
same,apoptosis induction / relative cell viability among four treatment groups,"[1]; TMS alone (40 nM), groups: control, compound c, TMS, FIG. 4",most effective in inducing apoptosis
same,IC50,[8],> 400 nM
same,apoptosis induction / relative cell viability among four treatment groups,[9],most effective in inducing apoptosis
same,induction of apoptosis,[10],inducing apoptosis
same,effect on mTOR,[11],significantly inhibited

# From patent publication US9597299B2, “Method for treating gefitinib-resistant non-small-cell lung cancer” (Macau University of Science and Technology, priority 2014, dated 2017)
